# Measurements as given in EPA's ToxValDB 9.5 (doi:10.2903/j.efsa.2015.4020).
# Legend:
# Typhlodromus pyri = experiment: LR50; higher = less toxic; conditions: not reported; mortality
# Aphidius rhopalosiphi = experiment: LR50; higher = less toxic; conditions: not reported; mortality
# Daphnia magna = conditions: chronic/long-term; duration: 21 days; reproduction
# Folsomia candida = conditions: chronic/long-term; duration: 28 days
# Bibionidae = conditions: chronic/long-term; duration: 28 days
# Oryctolagus sp. = conditions: reproduction developmental; body weight
# Apis mellifera = conditions: acute, mortality
# Pimephales promelas = conditions: mortality
# Hypoaspis aculeifer = conditions: chronic/long-term; duration: 28 days
# Rattus norvegicus = conditions: for NOAEL: body weight
# Neomysis kadiakensis = conditions: chronic/long-term; duration: 28 days; mortality
compound,measurement,setting,value
O=C1C=C(N(Cc2ccc(Cl)nc2)CC(F)F)CO1 [Flupyradifurone],LR50,Typhlodromus pyri,17 g/ha
same,LR50,Aphidius rhopalosiphi,< 0.5 g/ha
same,NOEC,Daphnia magna,3.2 mg/L
same,NOEC,Folsomia candida,1.44 mg/kg
same,LC50,"Tagia sp.; acute, duration: 14 days, mortality",186 mg/kg
same,NOEC,"Tagia sp.; chronic/long-term, duration: 56 days",1.5 mg/kg
same,NOEC,Bibionidae,0.00681 mg/L
same,NOAEL,Oryctolagus sp.,15 mg/kg-day
same,LD50,Apis mellifera; dermal,123 µg/piece
same,LD50,"Apis mellifera; oral, unspecified",1.2 µg/piece
same,LC50,"Pimephales promelas; acute, duration: 96 hours",> 70.5 µg/mL
same,NOEC,"Pimephales promelas; chronic/long-term, duration: 35 days",4.41 mg/L
same,LC50,"Colinus virginianus; acute, oral, diet, mortality",> 470 mg/kg-day
same,LD50,"Colinus virginianus; acute, oral, mortality",232 mg/kg-day
same,NOAEL,Colinus virginianus; reproduction developmental,14 mg/kg-day
same,NOEC,Hypoaspis aculeifer,170 mg/kg
same,LD50,"Rattus norvegicus; acute, mortality",1610 mg/kg-day
same,NOAEL,Rattus norvegicus; chronic,6.4 mg/kg-day
same,NOAEL,Rattus norvegicus; reproduction developmental,6.4 mg/kg-day
same,NOEC,Neomysis kadiakensis,0.0132 mg/L
